Experimental data: patent US7767815B2, “Fused tricyclic mGluR1 antagonists as therapeutic agents” (Schering Corporation, priority 2005, dated 2010)
Read-outs that look alike come from different tables or passages of the source.

Target: T1, hmGluR1 receptor (Homo sapiens, UniProt Q13255)
T1 construct: expressed in transfected cells; host or cells: CHO
Assay: mGluR1 IC50 determination, FLIPR intracellular calcium mobilization against Quisqualate
Format: cell-based
Details: CHO cell line stably expressing hmGluR1, against Quisqualate 1 μM (EC80), compounds added 10 minutes before
Experimental: A CHO cell line stably expressing hmGluR1 receptor was established. One day prior to assay, cells were split in growth media at concentration of 50,000 cells/well in a volume of 100 μl and seeded into black clear-bottom 96-well plates. After two to six hours, when cells were well attached to the plate, growth medium was replaced with assay medium (100 μL) consisting of DMEM high glucose, supplemented with GPT (1 U/mL) and sodium pyruvate, 1 mM. Following overnight incubation, medium was discarded and cells were loaded for 2 hours with dye from the Calcium 3 Assay Reagent Kit (Molecular Devices, # R8033), prepared according to manufacturers' instructions. […] Test compounds were added 10 minutes before Quisqualate.

T1 sequence (Q13255 19-1194): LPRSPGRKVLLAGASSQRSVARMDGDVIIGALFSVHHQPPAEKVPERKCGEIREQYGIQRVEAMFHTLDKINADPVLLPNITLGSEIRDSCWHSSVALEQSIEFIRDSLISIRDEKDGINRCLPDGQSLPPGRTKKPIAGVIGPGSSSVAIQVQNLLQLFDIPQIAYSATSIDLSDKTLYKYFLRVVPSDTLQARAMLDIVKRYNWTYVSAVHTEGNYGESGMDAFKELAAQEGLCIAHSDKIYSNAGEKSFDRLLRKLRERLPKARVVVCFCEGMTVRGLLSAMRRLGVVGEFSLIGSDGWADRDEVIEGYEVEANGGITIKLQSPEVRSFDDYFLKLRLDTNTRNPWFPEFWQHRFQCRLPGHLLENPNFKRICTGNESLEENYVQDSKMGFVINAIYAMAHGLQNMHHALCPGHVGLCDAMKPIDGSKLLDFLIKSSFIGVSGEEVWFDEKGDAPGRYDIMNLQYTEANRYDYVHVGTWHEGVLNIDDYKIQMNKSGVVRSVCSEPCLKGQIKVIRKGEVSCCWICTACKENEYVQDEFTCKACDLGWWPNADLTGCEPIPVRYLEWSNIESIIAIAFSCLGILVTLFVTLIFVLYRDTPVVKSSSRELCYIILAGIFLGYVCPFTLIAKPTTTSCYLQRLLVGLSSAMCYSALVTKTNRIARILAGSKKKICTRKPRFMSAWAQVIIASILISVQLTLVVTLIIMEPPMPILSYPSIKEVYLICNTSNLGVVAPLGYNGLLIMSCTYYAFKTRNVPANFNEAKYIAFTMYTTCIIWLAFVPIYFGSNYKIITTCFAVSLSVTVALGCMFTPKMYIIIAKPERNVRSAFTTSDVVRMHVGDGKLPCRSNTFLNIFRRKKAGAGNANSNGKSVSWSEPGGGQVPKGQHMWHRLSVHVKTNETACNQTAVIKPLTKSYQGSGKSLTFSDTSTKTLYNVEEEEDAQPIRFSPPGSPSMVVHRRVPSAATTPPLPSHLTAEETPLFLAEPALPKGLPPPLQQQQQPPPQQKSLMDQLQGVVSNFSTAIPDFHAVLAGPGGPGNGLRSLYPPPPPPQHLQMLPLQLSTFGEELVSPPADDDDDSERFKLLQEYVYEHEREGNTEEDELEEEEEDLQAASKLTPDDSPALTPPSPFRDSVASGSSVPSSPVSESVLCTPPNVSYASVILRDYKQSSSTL

Compound	IC50 (read-out: mGluR1 IC50 rating) [nM]	IC50 (read-out: mGluR1 IC50) [nM]
O=c1c2sc3nccc(O)c3c2ccn1-c1ccc(Cl)cc1 [17B]	100 to 1000	–
COc1ccnc2sc3c(=O)n(-c4ccccc4Cl)ccc3c12 [16U]	20 to 100	–
COc1ccnc2sc3c(=O)n(-c4ccc(F)cc4)ccc3c12 [16H]	< 20	–
COc1ccnc2sc3c(=O)n(-c4ccc(C#N)cc4)ccc3c12 [16X]	20 to 100	–
COc1ccnc2sc3c(=O)n(-c4ccccc4)ccc3c12 [16M]	< 20	–
COc1ccnc2sc3c(=O)n(-c4ccc5ncsc5c4)ccc3c12 [16F]	20 to 100	–
COc1ccnc2sc3c(=O)n(-c4ccc5occc5c4)ccc3c12 [16Q]	< 20	–
COc1ccnc2sc3c(=O)n(-c4cccc(Cl)c4)ccc3c12 [16R]	< 20	–
COc1ccnc2sc3c(=O)n(-c4ccc(Cl)cc4)ccc3c12 [16B]	< 20	3.4
COc1ccnc2sc3c(=O)n(-c4ccc5c(c4)OCCO5)ccc3c12 [16P]	20 to 100	–
COc1ccnc2sc3c(=O)n(-c4ccc(Br)cc4)ccc3c12 [16E]	< 20	4.8
COc1ccnc2sc3c(=O)n(-c4ccc5c(c4)OCO5)ccc3c12 [16O]	< 20	–
COc1ccc(-n2ccc3c(sc4nccc(OC)c43)c2=O)cc1F [16I]	< 20	–
CN(C)c1ccnc2sc3c(=O)n(-c4ccc(O)cc4)ccc3c12 [9H]	< 20	–
COc1ccnc2sc3c(=O)n(-c4ccc(C)cc4)ccc3c12 [16C]	< 20	3.9
COc1ccnc2sc3c(=O)n(-c4cccc(C)c4)ccc3c12 [16T]	< 20	–
Cc1ccc(-n2ccc3c(sc4nccc(O)c43)c2=O)cc1 [17C]	100 to 1000	–
COc1ccnc2sc3c(=O)n(-c4ccc5scnc5c4)ccc3c12 [16G]	< 20	–

Next, values leading:

IC50 (read-out: mGluR1 IC50 rating) [nM]	IC50 (read-out: mGluR1 IC50) [nM]	Compound
100 to 1000	–	COc1ccc(-n2ccc3c(sc4ncnc(OC)c43)c2=O)cc1 [23B]
20 to 100	–	Cc1ccc(-n2ccc3c(sc4nccc(NC[C@@H](C)O)c43)c2=O)cc1 [19M]
20 to 100	–	COc1ccc(-n2ccc3c(sc4nccc(NCC(F)(F)F)c43)c2=O)cc1 [19S]
20 to 100	–	C#CCNc1ccnc2sc3c(=O)n(-c4ccc(F)cc4)ccc3c12 [19AN]
< 20	–	COc1ccc(-n2ccc3c(sc4nccc(N(C)N)c43)c2=O)cc1 [19U]
100 to 1000	–	C#CCNc1ccnc2sc3c(=O)n(-c4ccc(OC)c(F)c4)ccc3c12 [19AO]
> 1000	–	COCCNc1ccnc2sc3c(=O)n(-c4ccc(O)cc4)ccc3c12 [19J]
20 to 100	–	COc1ccc(-n2ccc3c(sc4nccc(NCCCCCO)c43)c2=O)cc1 [19AH]
20 to 100	–	CCNc1ccnc2sc3c(=O)n(-c4ccc(F)cc4)ccc3c12 [19AL]
< 20	–	C#CCNc1ccnc2sc3c(=O)n(-c4ccc(Br)cc4)ccc3c12 [19AZ]
< 20	–	C#CCNc1ccnc2sc3c(=O)n(-c4ccc(Cl)cc4)ccc3c12 [19AE]
20 to 100	–	COCCNc1ccnc2sc3c(=O)n(-c4ccc(C)cc4)ccc3c12 [19C]
20 to 100	–	O=c1c2sc3nccc(NC4CC4)c3c2ccn1-c1ccc2scnc2c1 [19AR]
< 20	–	CCNc1ccnc2sc3c(=O)n(-c4ccc(OC)c(F)c4)ccc3c12 [19AU]
20 to 100	–	COCCCNc1ccnc2sc3c(=O)n(-c4ccc(OC)cc4)ccc3c12 [19W]
20 to 100	–	CCNc1ccnc2sc3c(=O)n(-c4ccc(OC)cc4F)ccc3c12 [19BG]
20 to 100	–	COc1ccc(-n2ccc3c(sc4nccc(NCCCCO)c43)c2=O)cc1 [19AA]
20 to 100	–	C#CCNc1ccnc2sc3c(=O)n(-c4ccc(OC)cc4)ccc3c12 [19X]

IC50 (read-out: mGluR1 IC50 rating) [nM]	IC50 (read-out: mGluR1 IC50) [nM]	Compound
< 20	–	COc1ncnc2sc3c(=O)n(-c4ccc(C)cc4)ccc3c12 [23A]
20 to 100	–	Cc1ccc(-n2ccc3c(sc4nccc(NCCO)c43)c2=O)cc1 [19L]
20 to 100	–	C[C@@H](O)CNc1ccnc2sc3c(=O)n(-c4ccc(Cl)cc4)ccc3c12 [19E]
20 to 100	–	COc1ccc(-n2ccc3c(sc4nccc(NCCCO)c43)c2=O)cc1 [19Y]
20 to 100	–	CCNc1ccnc2sc3c(=O)n(-c4ccc5scnc5c4)ccc3c12 [19AQ]
20 to 100	–	COc1ncnc2sc3c(=O)n(-c4ccc(Cl)cc4)ccc3c12 [23C]
20 to 100	–	Cc1ccc(-n2ccc3c(sc4nccc(NCC(F)(F)F)c43)c2=O)cc1 [19R]
< 20	9.8	COc1ccc(-n2ccc3c(sc4nccc(NC5CC5)c43)c2=O)cc1F [19AV]
20 to 100	–	COc1ccc(-n2ccc3c(sc4nccc(NC5CC5)c43)c2=O)c(F)c1 [19BH]
20 to 100	–	N#Cc1ccc(-n2ccc3c(sc4nccc(NC5CC5)c43)c2=O)cc1 [19BC]
20 to 100	–	Cc1ccc(-n2ccc3c(sc4nccc(N)c43)c2=O)cc1 [19AC]
20 to 100	–	O=c1c2sc3nccc(NCC(F)(F)F)c3c2ccn1-c1ccc(Cl)cc1 [19I]
20 to 100	–	COCCNc1ccnc2sc3c(=O)n(-c4ccc(Cl)cc4)ccc3c12 [19G]
< 20	–	O=c1c2sc3nccc(NCCO)c3c2ccn1-c1ccc(Cl)cc1 [19F]
< 20	–	C#CCNc1ccnc2sc3c(=O)n(-c4ccc(C)cc4)ccc3c12 [19AG]
20 to 100	–	CCNc1ccnc2sc3c(=O)n(-c4ccc(C#N)cc4)ccc3c12 [19BB]
20 to 100	–	COCCCNc1ccnc2sc3c(=O)n(-c4ccc(Cl)cc4)ccc3c12 [19H]
20 to 100	–	O=c1c2sc3nccc(NC4CC4)c3c2ccn1-c1ccc(F)cc1 [19AM]
